Assays:
[1] = tested on: primary cultured cerebral neurons; experiment: Aβ accumulation (6E10) and LC3 double staining; format: cell-based, rat; conditions: Aβ 0.5 or 1 μM, HN-1703 0.1 or 0.5 μM, 12 or 24 hours, FIG. 4
Procedure: Primary neurons culture was performed from the cerebral cortex of E16 embryos on embryonic day 16 of […] (SD, Orient Bio). Primary neurons culture (cortical neurons culture) was performed from the cerebral cortex of rat (SD, Orient Bio) embryonic 16-day (E16) embryos. The left and right hemispheres of the extracted brain were separated using sterile tweezers under a dissecting microscope, the meninges were peeled off, and then the cerebral cortex region was cut with No. 5 tweezers and collected in a Ca^2+/Mg^2+-free HBSS (Invitrogen), and mixed with an equal amount of 0.25% trypsin in a 15 ml tube and treated in a 37° C. water bath for 10 to 15 minutes. Thereafter, trypsin was inactivated by removing a portion of trypsin, leaving 1 to 2 ml of trypsin, and then adding the same amount of 20% FBS-DMEM. […]
As confirmed in Experimental Example 2 that HN-1703 may effectively promote autophagy, it was evaluated whether HN-1703 may remove Aβ oligomers accumulated in cells. In the rat embryonic (E16) cerebral cortex region, primary cultured cerebral neurons were treated with […] or 1 μM Aβ and 0.1 μM or 0.5 μM HN-1703 for 12 or 24 hours, and accumulated Aβ was stained with a 6E10 antibody and autophagy formation was simultaneously double-stained with an LC3 antibody and measured, and cell nuclei were labeled with DAPI. […]

[2] = tested on: 5xFAD transgenic mice; experiment: Senile plaques removal, Thioflavin-S staining of brain slices; format: in vivo
Procedure: 5xFAD animals were administered with HN-1703 at three doses for 14 days to male heterozygotes aged 6 months (all born within 3 days). The behaviors of mice were measured in a dark cycle in which the mice were active while alternating light and dark in a 12-hour cycle in a breeding room chamber, and the mice were freely accessible to food and water and bred in compliance with experimental animal ethical guidelines of Kyung Hee University. In each group, the HN-1703 was intraperitoneally injected at the same time once a day in a volume of 100 μl to 12 mice in a normal group (wild type littermate), 9 5xFAD mice in a vehicle (DMSO administration), 8 5xFAD mice in a 5 mg/kg administered group, 9 5xFAD mice in a 10 mg/kg administered group, and 9 5xFAD mice in a 20 mg/kg administered group. […] In a behavioral measurement room, humidity (40 to 60%) and temperature (22 to 26° C.) were maintained, and reflected light was maintained to avoid sound and light effects. Behavioral measures were measured in Y-maze, Morris Water Maze, and Passive Avoidance test for 18 days in sequence.
A brain slice immunostaining method was modified and used as described in Heo H et al. (J Ethnopharmacol, 2009). Mice were transcardially perfused with 4% PFA. After being immersed and fixed in 4% PFA for 4 hours, the brain tissue was unfrozen in 30% sucrose, frozen in an optimal cutting temperature (OCT) mixture, and stored at −80° C. Brain tissue slices were sectioned in a coronal direction at a thickness of 35 μm. The brain tissue slices were immersed in a storage solution (30% glycerol, 30% ethylene glycol, PBS) and stored at 4° C. The stored brain slices were permeabilized in 0.5% Triton X-100 for 20 minutes and shaken in 2 N HCl for 30 minutes at 37° C. Then, the brain slices were blocked in a free-floating state for 2 hours in 15% standard serum, 3% bovine serum albumin (BSA, bio-WORLD, Dublin, OH, USA) and 0.1% Triton X-100. The slices were shaken with a first antibody for 16 hours at 4° C. Thereafter, a second antibody complementary to the first antibody was attached at room temperature (22±1° C.) for 45 minutes. Then, the nuclei were washed with physiological saline (PBS) containing 1 μg/ml PI (propidiumiodide, Sigma) or DAPI (1:4000), and then placed on a slide glass and sealed using an aqueous mount, and observed under a confocal scanning microscope for tissue observation (LSM 810 Carl Zeiss, Oberkochen, Germany).
Brain slices segmented in a coronal direction were selected from the front to the back of the brain by one slice every 5 slices, and 5 to 11 slices for each animal's brain were co-stained with thioflavin-S and DAPI.
FIG. 7 is confocal scanning micrographs of the hippocampal dentate gyrus, and the entorhinal cortex and temporal lobe of the cerebral cortex, after staining senile plaques by treating the brain slice with Thioflavin-S, and FIG. 8 illustrates quantifying the entire area and staining intensity of the senile plaques stained with Thioflavin-S.

[3] = compared to the 5xFAD-DMSO control group, FIG. 8

COc1cc(OC)c2c(=O)c3cc4c(cc3oc2c1)OCO4 [HN-1703, 7,9-dimethoxy-10H-[1,3]dioxolo[4,5-b]xanthen-10-one]
Aβ accumulated in cells removed [1]: ≥ 50%
increase of the area of LC3 puncta ([1]; concentration-dependent): ≥ 4 times
reduction of senile plaques compared to the 5xFAD-DMSO group ([2]; 20 mg/kg, dentate gyrus, FIG. 7): ≥ 70%
senile plaques stained with Thioflavin-S ([2]; 5 to 20 mg/kg, hippocampal dentate gyrus, entorhinal cortex, temporal lobe, FIG. 7): reduced in a dose-dependent manner
number of senile plaques having sizes of 10 to 20 μm and 20 μm or more ([2]; all brain regions tested, compared to the 5xFAD-DMSO control group, FIG. 8): decreased in a dose-dependent manner
entire area of senile plaques [2, 3]: decreased in a dose-dependent manner
staining intensity of senile plaques [2, 3]: decreased in a dose-dependent manner

Source: patent US12605358B2, “Composition for preventing or treating nervous system diseases comprising compound that inhibits mTOR signaling pathway as active ingredient” (ALIAD BIOPHARMA, priority 2021, dated 2026)
